According to patent US12285392B2, “Method for modulating metabolism” (Brightseed, Inc., priority 2018, dated 2025):
Each block holds one compound with its values, some of them ahead of it.

What was measured:
estrogenic activity = assay: Counter-screen for estrogenic activity (E47MER luciferase reporter in HeLa cells); format: cell-based, human; details: FIG. 5
Protocol: Counter-Screen for Estrogenic Activity. Estrogenic activity was monitored by co-transfection of a reporter plasmid containing a multimerized E-box 5′ of a minimal promoter fused to the Firefly luciferase gene (4RTK-luc) with wild-type E47 or E47MER (Kiselyuk, et al. (2010) J. Biomol. Screen 15(6):663-70). HeLa cells were transfected using polyethylenimine, 0.2 μg 4RTK-Luc plasmid and either 0.3 μg of human E47, E47MER or pMSCVhph vector in 50 μl of serum-free Dulbecco's modification of Eagle medium per well. Transfections included Renilla luciferase (pRL-TK) plasmid as a control for transfection efficacy. Transfection conditions were as described in the PPRE-Luc reporter assay of Kiselyuk, et al. ((2010) J. Biomol. Screen 15(6):663-70). Sixteen hours after transfection, culture media were changed and maintained for 48 hours with tamoxifen and/or compound or vehicle (DMSO). Cells were then lysed and assayed for luciferase activity using the Promega DUAL-LUCIFERASE® reporter assay kit (Promega Corp., Madison, WI), and luminescence was measured using the Veritas™ Microplate Luminometer (Turner Biosystems, Sunnyvale, CA). Data were normalized to Renilla luciferase (pRL-TK) and expressed as fold-change over vehicle alone.

insulin mRNA = assay: Insulin mRNA levels by quantitative PCR; format: cell-based; details: FIG. 2
Protocol: (§1) Expression of Insulin and HNF4α. RNA was purified using a RNEASY® chromatographic separation and isolation kits (Qiagen), and converted to cDNA using the gScript™ cDNA SuperMix (Quanta Biosciences). Q-PCR was conducted with cDNA corresponding to 2 μg of RNA using an Opticon Real-Time System (MJ Research) and QPCR SuperMix (BioPioneer). See All mRNA values were normalized to 18S rRNA values and are expressed as fold changes over vehicle-treated control.

pH stability assessment = format: physicochemical; details: pH 2, 7.4, 8.5 and 10, 37° C., 0.5 and 72 hours
Protocol: pH Stability Assessment. Individual stock solutions were prepared in DMSO at concentrations of 10 mg/mL. Four different buffer solutions were prepared to achieve solutions with a pH of 2, 7.4, 8.5 and 10. For each pH assay, 5 μL of stock solution was added to 245 μL of buffered solution to a 2 mL tube, vortexed and incubated in a 37° C. water bath. At each timepoint, 50 μL aliquots were taken, neutralized and analyzed via HPLC analysis using a DAD detector at 280 nm. The fold change of the peak area at 280 nm was analyzed for the initial and final timepoint, 0.5 and 72 hours, respectively.

HepG2 cells = assay: Lipid clearance in HepG2 cells (steatosis assay, Oil Red O); format: cell-based; details: HepG2 liver cells, 20 μM
Protocol: (§2) Lipid Clearance in HepG2 and T6PNE Cells (Steatosis Assay). The steatosis assay was carried out as described (Kiselyuk, et al. (2012) Chem. Biol. 19(7):806-818) with the exception of the drug concentration, which was 20 μM for N-trans-caffeoyltyramine with 0.25 mM palmitate in HepG2 cell lines, and 10 μM of either N-trans-caffeoyltyramine, N-trans-caffeoyltyramine, or pcoumaroyltyramine, with 0.25 mM palmitate in T6PNE cell lines. Steatosis was assessed using the Oil Red 0 Method for Fats kits (Poly Scientific; Warrington, PA), per manufacturer's guidelines. Briefly, frozen tissue slides or fixed cells were incubated in neat propylene glycol for 2 minutes and Oil Red 0 solution for 15 hours for slides or 1 hour for fixed cells, differentiated in 85% propylene glycol solution for 1 minute, washed twice with distilled water and stained in Hematoxylin of 10 seconds. Slides were mounted with glycerin jelly mounting medium.

[1] = Bioavailability determination in mice; format: in vivo; details: mouse, whole blood, 30 mg/kg; male C57BL/6 mice
Protocol: Bioavailability Determinations.
An 8 μL aliquot of blood was used for analysis.

HNF4α mRNA = HNF4α mRNA levels by quantitative PCR; format: cell-based; details: FIG. 3
Protocol: as §1

HNF4α [2] = target: T1, HNF4α (Homo sapiens, UniProt P41235); assay: Insulin promoter activity assay in T6PNE cells (HNF4α activity); format: cell-based; details: for HNF4α modulation in screening: screening in the HNF4α assay
T1 construct: endogenous in cells; host or cells: T6PNE cells
T1 sequence (P41235 1-474): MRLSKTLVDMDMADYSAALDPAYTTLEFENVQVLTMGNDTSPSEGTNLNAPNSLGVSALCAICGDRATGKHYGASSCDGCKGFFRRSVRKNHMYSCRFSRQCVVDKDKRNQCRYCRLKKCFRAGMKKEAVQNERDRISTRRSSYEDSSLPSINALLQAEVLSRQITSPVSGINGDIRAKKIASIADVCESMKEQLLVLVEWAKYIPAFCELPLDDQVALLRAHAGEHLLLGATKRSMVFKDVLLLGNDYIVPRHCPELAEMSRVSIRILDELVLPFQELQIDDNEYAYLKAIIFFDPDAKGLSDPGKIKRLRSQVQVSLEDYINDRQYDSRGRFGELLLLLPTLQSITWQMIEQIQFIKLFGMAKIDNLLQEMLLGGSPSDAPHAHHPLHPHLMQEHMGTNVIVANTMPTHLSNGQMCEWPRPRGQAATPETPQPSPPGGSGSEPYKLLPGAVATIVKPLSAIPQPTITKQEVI
Protocol: Insulin Promoter Activity. T6PNE cells (Kiselyuk, et al. (2012) Chem Biol. 19(7):806-818; Kiselyuk, et al. (2010) J. Biomol. Screen 15(6):663-70) are seeded at 2000 cells per well in 384-well tissue culture plates in the presence of 1 μM tamoxifen and 0.03 mM palmitate. After a 24-hour incubation, a compound or extract of the invention is added to the cells. Forty-eight hours after compound or extract addition, cells are fixed in 4% paraformaldehyde and stained with DAPI. Blue (DAPI) and green (human insulin promoter driving GFP) channels are imaged.
Inhibition of HNF4α GFP Expression. Using the insulin promoter assay described herein, activity of HNF4α was assessed in the presence of BI-6015 (0, 2.5, 5 μM), a known antagonist of HNF4α (Kiselyuk, et al. (2012) Chem. Biol. 19(7):806-818), in combination with N-trans-caffeoyltyramine (0, 5, 10, 20 μM).
Given the role of HNF4α in maintaining a heal thy metabolism in humans, test compounds were screened for activity as HNF4α agonists (either direct or indirect effects). Using a known insulin promoter-reporter assay, Kiselyuk and colleagues (2010. J. Biomol. Screen 15(6):663-70), screened a library of compounds for activity to promote insulin activation. […] The OTC promoter is known to be responsive to HNF4α in transient transfection assays (Inoue, et al. (2002) J. Biol. Chem. 277:25257-65).

T6PNE cells = assay: Lipid clearance in T6PNE cells (steatosis assay); format: cell-based; details: 10 μM, 0.25 mM palmitate
Protocol: T6PNE cells were pretreated for 1 day with 0.06 mM, 0.12 mM or 0.25 mM palmitate at which time 15 μM N-trans-caffeoyltyramine or control (DMSO) was added. Cells were harvested on day 3, 6 and 8 and subjected to staining with Nile Red and Oil Red O. Results are expressed as fold change in Nile Red staining: +palmitate/10% FBS medium (no palmitate)
as §2

HNF4α [3] = target: T1, HNF4α; details: Kiselyuk et al.; cited from earlier work
HNF4α [4] = target: T1, HNF4α; details: cited from earlier work

pH Stability (pH stability assessment): Stable
bioavailability [1]: ~7%
HNF4α modulation in screening (HNF4α [2]): able to act as HNF4α modulators
SMILES: COc1cc(/C=C/C(=O)NCCc2ccc(O)cc2)ccc1O [N-trans-feruloyltyramine]
Estrogenic activity (estrogenic activity): did not exhibit estrogenic activity
Insulin gene expression (insulin mRNA): upregulated
Clearing of fats (Oil Red O staining) (HepG2 cells): capable of clearing harmful fats from the liver
Accumulation of fats (HepG2 cells; 0.25 mM palmitate): inhibited accumulation of fats
HNF4α gene expression (HNF4α mRNA): upregulated
Fat accumulation (T6PNE cells): inhibition of fat accumulation

SMILES: O=C(/C=C/c1ccc(O)cc1)NCCc1ccc(O)c(O)c1 [N-coumaroyldopamine]
Insulin gene expression (insulin mRNA): inactive
HNF4α gene expression (HNF4α mRNA): inactive

SMILES: O=C(/C=C/c1ccc(O)cc1)NCC(O)c1ccc(O)cc1 (stereo not shown) [p-coumaroyloctopamine]
Insulin gene expression (insulin mRNA): inactive
HNF4α gene expression (HNF4α mRNA): inactive

SMILES: CCN(CCCCc1ccccc1)CCc1ccccc1 [compound 1]
Insulin activation in insulin promoter-reporter screen (HNF4α [3]): insulin activator
HNF4α agonistic activity in OTC promoter assay (HNF4α [4]): possess HNF4α agonistic activity

pH Stability (pH stability assessment): Acid Stable
SMILES: O=C(/C=C/c1ccc(O)cc1)NCCc1ccc(O)cc1 [p-coumaroyltyramine]

HNF4α modulation in screening (HNF4α [2]): able to act as HNF4α modulators
SMILES: O=C(/C=C\c1ccc(O)c(O)c1)NCCc1ccc(O)cc1 [N-cis-caffeoyltyramine]

Effect on N-trans-caffeoyltyramine-mediated increases in insulin expression (HNF4α [2]; insulin promoter assay, BI-6015 0, 2.5, 5 μM, FIG. 4): inhibited
SMILES: Cc1ccc([N+](=O)[O-])cc1S(=O)(=O)n1c(C)nc2ccccc21 [BI-6015, reference compound]

SMILES: COc1cc(/C=C\C(=O)NCCc2ccc(O)cc2)ccc1O [cis-feruloyltyramine, reference compound]
Insulin gene expression (insulin mRNA): inactive
HNF4α gene expression (HNF4α mRNA): inactive

SMILES: COc1cc(/C=C/C(=O)NCC(O)c2ccc(O)cc2)ccc1O (stereo not shown) [N-transferuloyloctopamine]
Insulin gene expression (insulin mRNA): inactive
HNF4α gene expression (HNF4α mRNA): inactive
